Columns and labels:
[1] = tested on: monkey LS9 (MLS9; cynomolgus); assay: In vitro metabolism profiling of CDD in monkey liver S9 (1 mg/ml); type: in vitro ADME
Experimental: (§1) The metabolism profiles of CDD were investigated against HLS9, MLS9, DLS9, and RLS9. A stock solution of CDD was prepared at 150 µM in 50% acetonitrile in water before use. The metabolism study was initiated by spiking 735 µl of preincubated LS9 with 15 µl of CDD stock solution, and the mixture was subsequently incubated at 37°C. The final concentrations of CDD and LS9 were 3 μM and 1 mg/ml, respectively. A 50-µl aliquot from the mixture was collected at 0.5, 1, 2, 3, 4, 5, 10, 15, 30, 45, 60, 90, and 120 min and immediately mixed with 100 µl of ice-cold acetonitrile containing 0.45 µM of internal standard DMC to terminate the metabolic reaction. […] The sample at the initial time point (0 min) was prepared as the other samples, except that heat-inactivated HLS9, MLS9, DLS9, and RLS9 (80°C for 20 min; 1 mg/ml protein) were used.
(§2) The UHPLC system consisted of an Agilent series 1290 quaternary pump with an online degasser, autosampler, column oven, and diode array detector. The mobile phase was composed of (A) 0.1% (v/v) formic acid in acetonitrile and (B) 0.1% (v/v) formic acid in water. Each solution was filtered through a nylon filter (pore size, 0.22 µm; MS® Membrane Filters; Membrane Solutions, United States) before use. The mobile phase flow rate was kept at 1.2 ml/min in a gradient mode using the following elution program: 0–3.0 min, initial A-B (40:60, v/v); 4.5–7.0 min, isocratic elution A-B [50:50, (v/v); 8.5–11.0 min, isocratic elution A-B (60:40, v/v); and 12.0–17.0 min, isocratic elution A-B (40:60, v/v)]. CDD, curcumin, and MSCUR in the supernatant were partitioned using a C8 column (4.6 mm × 50 mm, 2.7 µm; HALO, Advanced Materials Technology, United States) with reference to DMC. The detection wavelength was set at 400 nm (λ max(CDD) = 400 nm, λ max(curcumin) = 427 nm, λ max(MSCUR) = 418 nm, and λ max(DMC) = 421 nm). The column was maintained at 35°C throughout the run, and the supernatant injection volume was set at 20 µl.
(§3) The concentrations of CDD, curcumin, and MSCUR in the supernatant were determined from the standard plots, which were prepared by spiking individual working solutions of the compounds to heat-inactivated HLS9, MLS9, DLS9, and RLS9 ([Alcorn et al., 2007]; [Montoro-Garcia et al., 2009]; [Singh et al., 2010]). These working standards were extracted with 100 µl of ice-cold acetonitrile containing 0.45 µM of DMC and then 120 μl of the supernatant was diluted with 40 μl of water prior to the UHPLC analysis. The peak area ratios of CDD, curcumin, and MSCUR to the internal standard were computed against linear concentration ranges of 0.025–4.5 µM CDD, 0.025–4.5 µM curcumin, and 0.0125–0.75 µM MSCUR, respectively, with the coefficient of determination (r^2) values greater than 0.99.
(§4) The percent content of CDD and the metabolites formed upon its incubation with LS9, namely, curcumin and MSCUR, was plotted against incubation time.
(§5) The following equations were adopted to describe the changes in CDD and MSCUR content over time (t): A = A0e^−k1t (2) B= k1A0/k2−k1(e^−k1t−e^−k2t), (3) where A0 is the CDD concentration at time 0, k 1 is the degradation rate constant of CDD, and k 2 is the degradation rate constant of MSCUR. k 1 and k 2 were determined by using Eqs. 2 and 3, respectively, with nonlinear regression analysis using the SOLVER function of Microsoft Excel for Office 365 MSO (16.0.12527.20986) ([Brown, 2001]). The half-life (t 1/2) was calculated using Eq. 4: t1/2=0.693/k (4)
(§6) The in vitro intrinsic clearance (CLint,in vitro) of CDD and MSCUR in LS9 was calculated using Eq. 5: CLint, in vitro= k × [V]incubation(ml)/[P]incubation(mg protein), (5) where [V]incubation is the incubation volume in ml, and [P]incubation is the amount of LS9. […]

[2] = as above; type: in vitro ADME, monkey (cynomolgus); settings: liver S9; monkey LS9 1 mg/ml; read-out: t 1/2 (CDD)
Experimental: as §1, §2, §3, §4, §5, §6

[3] = tested on: dog LS9 (DLS9; beagle); assay: In vitro metabolism profiling of CDD in dog liver S9 (1 mg/ml); type: in vitro ADME
Experimental: as §1, §2, §3, §4, §5, §6

CCOC(=O)CCC(=O)Oc1ccc(/C=C/C(=O)/C=C(O)/C=C/c2ccc(OC(=O)CCC(=O)OCC)c(OC)c2)cc1OC [CDD, curcumin diethyl disuccinate]
CLint, in vitro(CDD) ([1]; monkey LS9): 0.81 ± 0.13 ml min^−1 mg protein^−1
k 1 (CDD) ([1]; monkey LS9 1 mg/ml, CDD 3 µM, 37°C): 0.81 ± 0.13 min⁻¹
CLint, in vivo(CDD) ([1]; monkey, scaled from CLint,in vitro with physiologically based scaling factors): 176.96 ± 27.49 L/h/kg
CLint, in vivo total ([1]; monkey, sum of CLint,in vivo(CDD) and CLint,in vivo(MSCUR)): 4,704.26 ± 695.64 L h^−1 kg^−1
CLH (predicted hepatic clearance) ([1]; monkey, well-stirred model, QH 44 ml min^−1 kg^−1, fup 0.0594): 2.61 ± 3.87 × 10^–3 L h^−1 kg^−1
half-life at 3 µM [2]: 52.2 ± 7.8 s
CLint, in vitro(CDD) ([3]; dog LS9): 0.85 ± 0.29 ml min^−1 mg protein^−1
k 1 (CDD) ([3]; dog LS9 1 mg/ml, CDD 3 µM, 37°C): 0.85 ± 0.29 min⁻¹
CLint, in vivo(CDD) ([3]; dog, scaled from CLint,in vitro with physiologically based scaling factors): 198.61 ± 66.73 L/h/kg
CLint, in vivo total ([3]; dog, sum of CLint,in vivo(CDD) and CLint,in vivo(MSCUR)): 5,915.59 ± 535.14 L h^−1 kg^−1
CLH (predicted hepatic clearance) ([3]; dog, well-stirred model, QH 40 ml min^−1 kg^−1, fup 0.0594): 2.38 ± 1.48 × 10^–3 L h^−1 kg^−1
